Laboratory results published in the supplement of paper PMC10307832.

How the values were obtained:
Assay in all cases: relative viability (nuclei count vs DMSO), 5 days (fraction); higher = more cells survive
Cediranib + Navitoclax = compound: COc1cc2c(Oc3ccc4[nH]c(C)cc4c3F)ncnc2cc1OCCCN1CCCC1 [Cediranib] + CC1(C)CCC(c2ccc(Cl)cc2)=C(CN2CCN(c3ccc(C(=O)NS(=O)(=O)c4ccc(N[C@H](CCN5CCOCC5)CSc5ccccc5)c(S(=O)(=O)C(F)(F)F)c4)cc3)CC2)C1 [Navitoclax] (partner 0.5 µM)
Method in brief: (§1)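 Lung cancer cell lines were seeded in 1536-well plates and dosed by pin tool the next day, with either a single drug or a fixed anchor-drug dose combined with five library-drug doses (not always all listed) spaced in √10 steps. Five days later, one step fixed the cells and stained their nuclei (final 0.05% Triton X-100, 1% formaldehyde, 1 ug/ml Hoechst), and nuclei were counted on 4× images. Relative viability is the nuclei count in treated wells divided by the count in vehicle wells, and each value is the median of duplicate plates.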

Cediranib + Bortezomib = compound: COc1cc2c(Oc3ccc4[nH]c(C)cc4c3F)ncnc2cc1OCCCN1CCCC1 [Cediranib] + CC(C)C[C@H](NC(=O)[C@H](Cc1ccccc1)NC(=O)c1cnccn1)B(O)O [Bortezomib] (partner 0.002 µM)
Method in brief: as §1

Decitabine + Tozasertib = compound: Nc1ncn([C@H]2C[C@H](O)[C@@H](CO)O2)c(=O)n1 [Decitabine] + Cc1cc(Nc2cc(N3CCN(C)CC3)nc(Sc3ccc(NC(=O)C4CC4)cc3)n2)n[nH]1 [Tozasertib] (partner 0.1 µM)
Method in brief: as §1

[1] = compound: O=C(C[C@H]1NCCC[C@@H]1O)Cn1cnc2cc(Br)c(Cl)cc2c1=O (racemic) [Halofuginone] + CS(=O)(=O)N1CCN(Cc2cc3nc(-c4cccc5[nH]ncc45)nc(N4CCOCC4)c3s2)CC1 [Pictilisib] (partner 1 µM)
Method in brief: as §1

Cell Line | relative viability (Cediranib + Navitoclax; first compound 0.04 µM) | relative viability (Cediranib + Navitoclax; first compound 0.1265 µM) | relative viability (Cediranib + Navitoclax; first compound 0.4 µM) | relative viability (Cediranib + Navitoclax; first compound 1.265 µM) | relative viability (Cediranib + Navitoclax; first compound 4 µM) | relative viability (Cediranib + Bortezomib; first compound 0.04 µM) | relative viability (Cediranib + Bortezomib; first compound 0.1265 µM) | relative viability (Cediranib + Bortezomib; first compound 0.4 µM) | relative viability (Cediranib + Bortezomib; first compound 1.265 µM) | relative viability (Cediranib + Bortezomib; first compound 4 µM) | relative viability (Decitabine + Tozasertib; first compound 0.04 µM) | relative viability (Decitabine + Tozasertib; first compound 0.1265 µM) | relative viability (Decitabine + Tozasertib; first compound 0.4 µM) | relative viability (Decitabine + Tozasertib; first compound 1.265 µM) | relative viability (Decitabine + Tozasertib; first compound 4 µM) | relative viability ([1]; first compound 0.001 µM) | relative viability ([1]; first compound 0.003162 µM) | relative viability ([1]; first compound 0.01 µM) | relative viability ([1]; first compound 0.03162 µM) | relative viability ([1]; first compound 0.1 µM)
SK-LU-1 | 1.1 | 0.999 | 0.859 | 0.654 | 1.04 | 1.22 | 1.24 | 1.13 | 0.956 | 1.17 | 0.283 | 0.288 | 0.214 | 0.238 | 0.24 | 0.766 | 0.633 | 0.557 | 0.493 | 0.415
NCI-H2023 | 0.997 | 1.02 | 1.01 | 0.997 | 0.988 | 1.04 | 0.447 | 0.897 | 0.849 | 1.02 | 0.218 | 0.226 | 0.157 | 0.0961 | 0.122 | 0.268 | 0.232 | 0.228 | 0.141 | 0.0681
HCC-366 | 1.07 | 0.983 | 1.11 | 1.07 | 1.07 | 0.968 | 1.03 | 0.963 | 0.888 | 1.22 | 0.0988 | 0.104 | 0.0711 | 0.0439 | 0.0387 | 0.231 | 0.14 | 0.216 | 0.144 | 0.184
NCI-H1355 | 0.94 | 0.954 | 0.898 | 0.936 | 1.04 | 1.18 | 1.17 | 1.23 | 1.24 | 1.21 | 0.315 | 0.334 | 0.263 | 0.224 | 0.224 | 0.444 | 0.424 | 0.458 | 0.501 | 0.376
NCI-H1650 | 1.19 | 1.29 | 1.08 | 1.12 | 0.751 | 0.201 | 0.169 | 0.205 | 0.223 | 0.194 | 0.247 | 0.297 | 0.289 | 0.169 | 0.193 | 0.28 | 0.658 | 0.469 | 0.495 | 0.136
SW 1573 | 0.925 | 1.06 | 0.872 | 1.01 | 1.05 | 1.1 | 1.04 | 0.899 | 1.05 | 1.09 | 0.165 | 0.167 | 0.172 | 0.124 | 0.108 | 0.451 | 0.532 | 0.435 | 0.34 | 0.18
LU99A | 0.787 | – | 0.813 | 0.698 | 0.969 | 1.27 | – | 1.12 | 0.942 | 1.17 | 0.32 | 0.255 | 0.291 | 0.252 | 0.219 | 0.405 | 0.361 | 0.294 | 0.308 | 0.242
LCLC-97TM1 | 0.316 | – | 0.448 | 0.544 | 0.527 | 0.351 | – | 0.643 | 0.769 | 0.578 | 0.167 | 0.17 | 0.129 | 0.11 | 0.0997 | 0.289 | 0.216 | 0.179 | 0.201 | 0.14
LC-2-ad | 0.504 | 0.502 | 0.469 | 0.419 | 0.513 | 1.09 | 1.04 | 0.973 | 1.03 | 0.959 | 0.479 | 0.419 | 0.299 | 0.334 | 0.371 | 0.66 | 0.551 | 0.492 | 0.455 | 0.269
NCI-H2228 | 0.791 | 0.968 | 0.883 | 1.22 | 1.1 | 1.16 | 1.09 | 0.991 | 1.35 | 1.14 | 0.176 | 0.207 | 0.134 | 0.114 | 0.104 | 0.355 | 0.455 | 0.398 | 0.224 | 0.095
HOP-62 | 1.08 | 0.892 | 0.867 | 1.1 | 1.14 | 0.322 | – | 0.672 | 0.68 | 0.842 | 0.226 | 0.229 | 0.141 | 0.108 | 0.104 | 0.661 | 0.781 | 0.766 | 0.53 | 0.239
NCI-H2347 | 0.886 | 0.754 | 0.748 | 0.831 | 0.891 | 1.09 | 0.819 | 0.93 | 1.02 | 0.96 | 0.415 | 0.486 | 0.493 | 0.358 | 0.347 | 0.759 | 0.636 | 0.445 | 0.699 | 0.374
NCI-H2087 | 1.07 | 0.914 | 1.01 | 0.984 | 1.07 | 0.849 | 0.739 | 0.775 | 0.722 | 0.697 | 0.229 | 0.194 | 0.176 | 0.129 | 0.153 | 0.986 | 1.01 | 0.799 | 1 | 0.831
EPLC-272H | 1.35 | – | 1.05 | 1.15 | 1.27 | 0.997 | – | 0.923 | 0.794 | 0.949 | – | 0.307 | 0.0586 | 0.26 | 0.157 | 0.324 | 0.306 | 0.338 | 0.352 | 0.325
LXF-289 | 0.97 | 0.878 | 0.948 | 0.926 | 0.957 | 1.04 | 0.87 | 0.969 | 0.97 | 0.958 | 0.151 | 0.162 | 0.119 | 0.0869 | 0.0957 | 0.748 | 0.859 | 0.795 | 0.813 | 0.495
COR-L23 | 0.966 | 1.14 | 0.893 | 0.922 | 1.03 | 0.944 | 1.05 | 0.867 | 0.969 | 1.18 | 0.134 | 0.158 | 0.158 | 0.123 | 0.128 | 0.954 | 0.963 | 0.801 | 0.6 | 0.156
